Experimental findings from paper PMC10900488, “Synthesis and Evaluation of (Bis)benzyltetrahydroisoquinoline Alkaloids as Antiparasitic Agents” (JACS Au, 2024) are described below.

Assay [1] relates to L. infantum promastigotes. Put plainly: Antipromastigote assay (L. infantum), MTT colorimetric. The format is cell-based, Leishmania (L.) infantum. Conditions: Leishmania infantum; ± SD; MTT, 48 h; read-out: L. infantum IC50 promastigotes.
Assay [2] deals with T. cruzi amastigotes. Put plainly: Antiamastigote assay (T. cruzi), ex vivo intracellular model using mice macrophages, microscopy. The format is cell-based, Trypanosoma (T.) cruzi. Conditions: Trypanosoma cruzi, Peritoneal macrophage, 48 h, ± SD, read-out: T. cruzi IC50 amastigotes.
Assay [3] concerns L. mexicana promastigotes. As to the kind of experiment: Growth studies, 24 h promastigote culture. The format is cell-based, Leishmania (L.) mexicana. Here is the method: Preliminary investigations into the mechanism of action for compounds (S)-9a, (S)-9b and (S,R)-11 were carried out using L. mexicana promastigotes. Light microscopy-based techniques were employed to further explore compound activity in a different, related Leishmania species. […] A solvent-only control using 0.1% (v/v) DMSO led to no significant effects. Cell cultures were examined by light microscopy to identify any morphological changes resulting from compound treatment (Figure 2B). […] Cells treated with the BI and BBI compounds develop a changed morphology with a spherical cell body or shortened flagellum. This effect is observed in 25% of the population for compound (S)-9a, to a greater extent (66%) for (S)-9b, and 27% for compound (S,R)-11. An abnormal number and position of Ks and Ns were often observed, with Ks and Ns sometimes less well-defined by Hoechst 33342 staining.
NCTC cells (6 × 10^4/well) were added to a 96-well plate. Treatments of the cells with selected compounds (serially diluted 1.5 to 200 μM) was performed in a humidified incubator for 96 h at 37 °C and with 5% CO2.
The MTT colorimetric method was used to determine the 50% cytotoxic concentration (CC50) and the selectivity index (CC50 against NCTC cells/IC50 against amastigotes).15 […]
[…] […] Statistical significance was derived from a two-tailed T-test.
The Graph Pad Prism 5 software was used to perform sigmoid dose-response curves for the determination of […]
[…] At 6 h and 24 h post-treatment, a 1 mL aliquot was taken for imaging. The cell cycle experiment was preformed twice independently.
Generation of mNG::RAD51 tagged cell line
The single-stranded DNA-binding protein RAD51, associated with DNA Repair, LmxM.28.0550 was tagged with endogenous fluorescent protein mNeonGreen (mNG) at the N-terminus. […]
Primers for constructs and sgRNA were designed using LeishGEdit (http://www.leishGEdit.net).
PCR was at 94 °C for 5 min, followed by 35 cycles at 94 °C (15 sec), 65 °C (15 sec), 72 °C (2 min) then finally 72 °C (1 min). […]

For orientation: IC50 means the concentration that gives 50% inhibition. As for `COc1cc2c(cc1OC)[C@H](Cc1ccc(Br)cc1)N(C)CC2` [(S)-9a], the half-inhibitory concentration (IC50) came to 18.4 ± 2.1 µM in assay [1] and 25.1 ± 3.1 µM in assay [2]. Further, the “concentration sufficient to inhibit growth over 24 h” value in assay [3] worked out at 50 µM.
The matching figures for `COc1cc2c(cc1OC)[C@H](Cc1ccc(OC)c(OCc3ccccc3)c1)N(C)CC2` [(S)-9b]: 8.6 ± 0.8 µM, 12.2 ± 0.5 µM and 50 µM.
Consider `COc1cc2c(cc1OC)[C@@H](Cc1ccc(Oc3cc(C[C@H]4c5cc(OC)c(OC)cc5CCN4C)ccc3OC)cc1)N(C)CC2` [(S,R)-11, (−)-O,O′-dimethylgrisabine], for which the results for the half-maximal inhibitory concentration (IC50) in assay [1] and in assay [2] were 0.8 ± 0.01 µM and 2.2 ± 0.7 µM, respectively. Also, the “potency in growth inhibition relative to (S)-9a and (S)-9b” value in assay [3] worked out at 10 fold.
